One experiment has as its system A. baumannii (AF0004). Particulars: 12.5 μM. The source says:
Bacterial strains: Two Gram-positive MRSA strains (IQ0064 and IB0004) and one Gram-negative Acinetobacter baumannii strain (AF0004) were studied. All of them are clinical isolates. MRSA IQ0064 was a multidrug-resistant strain isolated from wounded military personnel deployed to Iraq. According to a microbiology test, IQ0064 strain was resistant to ampicillin, cefazolin, cefoxitin, oxacillin, and penicillin. MRSA IB0004 was an isolate from a keratitis patient. A. baumannii AF0004 was a multidrug-resistant strain isolated from wounded military personnel deployed to Afghanistan. […]
Light source: Light was delivered topically using a noncoherent light source (LumaCare, Newport Beach, CA) that provided the full spectrum of visible light (400 to 800 nm). […] The light power was routinely measured using a laser power meter (Fieldmate; Coherent, Portland, OR).
Antimicrobial photodynamic inactivation (aPDI) of bacteria: Bacterial suspensions were adjusted to 10^8 CFU/mL, inoculated to 96-well plates (200 μL/well), incubated with fullerenes at 6.25, 12.50, 18.75, and 25.00 μM concentrations for 1.0 h and then either left in dark or irradiated with 660 nm light at 115 J/cm^2. […] Survival fractions were routinely expressed as ratios of CFU of bacterial cells treated with light and fullerene monoadducts, or treated with fullerenes in the absence of light, to CFU of bacteria treated with neither.

The subject of another experiment is MRSA (strain IQ0064). Type of experiment: cell-based, Staphylococcus aureus. How it is done:
(§1) FIG. 3. (A) aPDT against vancomycin-resistant and sensitive strains of E. fecium (VSE). Log10 survival fractions of E. fecium (10^8 cells/mL) incubated for 30 min with 50-nM concentration of VCM-mPheZn-N5^+ (LC39, see Huang, L., Wang, M., Chiang, L. Y., Hamblin, M. R., et al. Photochem. Photobiol. Sci. 2018, 17, 638-651) by irradiation with increasing exposes of a 415-nm LED light. […] Irradiation was carried out with (C) the radiant exposure of 115 J/cm^2 at 660 nm (LED light, 40 mW/cm^2) and (D) the radiant exposure of 20 J/cm^2 at 405 nm (LED light, 24 mW/cm^2). All data were represented as login survival fractions as a function of both aPDI agent concentration and light wavelength/exposure, where the dashed red line in Panel Cd represents the detection limit of MRSA CFU. […] (E) Concentration dependent aPDI of MRSA (strain IQ0064) by ChlPd-(C70>)N10^+ (LC41) upon illumination at 115 J/cm^2 and 660-nm wavelength (40 mW/cm^2).
Bacterial strains: Two Gram-positive MRSA strains (IQ0064 and IB0004) and one Gram-negative Acinetobacter baumannii strain (AF0004) were studied. All of them are clinical isolates. MRSA IQ0064 was a multidrug-resistant strain isolated from wounded military personnel deployed to Iraq. According to a microbiology test, IQ0064 strain was resistant to ampicillin, cefazolin, cefoxitin, oxacillin, and penicillin. MRSA IB0004 was an isolate from a keratitis patient. A. baumannii AF0004 was a multidrug-resistant strain isolated from wounded military personnel deployed to Afghanistan. AF0004 was resistant to a panel of important antibiotics including amikacin, ampicillin, aztreonam, cefazolin, cefepime, cefoxitin, ceftazidime, ceftriaxone, cefuroxime, ciprofloxacin, gentamicin, imipenem, levofloxacin, meropenem, nitrofurantoin, tetracycline and trimethoprim-sulfamethoxazole.
Light source: Light was delivered topically using a noncoherent light source (LumaCare, Newport Beach, CA) that provided the full spectrum of visible light (400 to 800 nm). The system employed interchangeable filter probes and produced a uniform spot for illumination. We used a 660±15-nm filter probe. The irradiance of 40 mW/cm^2 was used throughout the study. The light power was routinely measured using a laser power meter (Fieldmate; Coherent, Portland, OR).
Antimicrobial photodynamic inactivation (aPDI) of bacteria: Bacterial suspensions were adjusted to 10^8 CFU/mL, inoculated to 96-well plates (200 μL/well), incubated with fullerenes at 6.25, 12.50, 18.75, and 25.00 μM concentrations for 1.0 h and then either left in dark or irradiated with 660 nm light at 115 J/cm^2. At the completion of each stage of illumination, the contents of the wells were well mixed before sampling. Aliquots (30 μL) were taken from each well to determine CFU. The aliquots were serially diluted 10-fold in phosphate-buffered saline (PBS) to give dilutions of 10^1 to 10^5 times in addition to the original concentration; then, 10 μL aliquots of each of the dilutions were streaked horizontally on square BHI plates. Plates were streaked in triplicate and incubated for 24 h at 37° C. in the dark to allow colony formation. Control groups included bacterial cells that were treated with light alone (no fullerene monoadducts added), and cells treated with fullerene monoadducts (no light) as the dark control. Survival fractions were routinely expressed as ratios of CFU of bacterial cells treated with light and fullerene monoadducts, or treated with fullerenes in the absence of light, to CFU of bacteria treated with neither.

The test system of another experiment is MRSA cells. Put plainly: Binding to MRSA cells by confocal microscopy fluorescence imaging. It counts as cell-based, Staphylococcus aureus. The following applies: 405-nm irradiation, red emission 640-780 nm.
In the next experiment the test system is MRSA. Particulars: against MRSA.
The next experiment concerns E. fecium. The following applies: 50 nM, 415 nm irradiation, VCM-resistant and sensitive strains. How it is done:
as §1

As to “3a-hydroxy-3b-aminoethylene-aminoPEGlycolated vancomycin-15b-methyl-13a,17c-di[N,N′,N,N,N,N-hexapropyl-panta(aminoethylene)]amide-mesochlorin [LC40e]”, in the experiment on A. baumannii (AF0004) (no light), the “dark toxicity to A. baumannii cells” value is “about 1.5 log10 CFU”. In addition, the “CFU reduction (inactivation of A. baumannii CFUs)” value in the experiment with A. baumannii (AF0004) (red light 660 nm, 115 J/cm^2) is above 6 log10 CFU. Further, in the experiment with MRSA (strain IQ0064) (10-20 μM, 405-nm irradiation, 20 J/cm^2), the “photokilling efficacy on MRSA” value is 5.0 log10. In addition, the “CFU reduction (photokilling of MRSA)” value with MRSA (strain IQ0064) (10-20 μM, 660-nm light, 115 J/cm^2) was above 6.5 log10 CFU. Also, in the experiment with MRSA (strain IQ0064) (405- and 660-nm photoexcitation, up to 20 μM), the “light mediated killing of MRSA cells (qualitative)” value is reported as “susceptible to light mediated killing”. Besides, the “additional increase in the inactivation of bacteria by the combination of antibiotics and aPDT” value with MRSA (strain IQ0064) (combination versus antibiotic activity alone) came to 3 log10 CFU. In addition, in the experiment on MRSA (strain IQ0064) (without red-light irradiation, bacterium not given, MRSA implied), the “antibiotic activity, CFU killing without red-light irradiation” value was found to be 4 log10 CFU. Besides, in the experiment on MRSA cells, the “red FL emission on pretreated MRSA cells (relative cell affinity)” value was “significantly enhanced”. In the experiment on MRSA, the minimal inhibitory concentration (MIC) stood at 2.0 µg/mL.
For the compound `CN[C@H](CC(C)C)C(=O)N[C@H]1C(=O)N[C@@H](CC(N)=O)C(=O)N[C@H]2C(=O)N[C@H]3C(=O)N[C@H](C(=O)N[C@H](C(=O)O)c4cc(O)cc(O)c4-c4cc3ccc4O)[C@H](O)c3ccc(c(Cl)c3)Oc3cc2cc(c3O[C@@H]2O[C@H](CO)[C@@H](O)[C@H](O)[C@H]2O[C@H]2C[C@](C)(N)[C@H](O)[C@H](C)O2)Oc2ccc(cc2Cl)[C@H]1O` [vancomycin, reference compound], the “effect on viability of MRSA cells” value in the experiment on MRSA (strain IQ0064) (equivalent dose, control, 660 nm and 405 nm (FIGS. 3Ca, 3Da)) is “negligible effect”.
For “3a-hydroxy-3b-vancomycin-15b-methyl-17c-[N,N′,N,N,N,N-hexapropyl-penta(aminoethylene)]amide-[Zn^+2]mesopheophorbide [LC39]”, in the experiment on E. fecium, the aPDT effect entry is reported as “excellent aPDT effect”.

For the origin of these results see patent US12570665B2, “Compositions comprising fullerenyl mesochlorin nano-photosensitizers with covalently bound antibiotics and their uses in combination therapy” (priority 2019, dated 2026).
